Test results from patent US6534489B1, “Organophosphorus compounds and the use thereof” (Jomaa Pharmaka GmbH, priority 1998, dated 2003).
Read-outs that look alike come from different tables or passages of the source.

Experiments:
Plasmodium falciparum = assay: Antimalarial activity: in vitro Plasmodium falciparum culture, [3H]-hypoxanthine incorporation; format: cell-based; details: Example 11, asynchronous blood culture, 48 h + 24 h with [3H]-hypoxanthine, dilution series 100 to 0.14 μmol l−1, IC50 determined by extrapolating, read-out: IC 50 values, Plasmodium falciparum
Experimental: The antimalarial activity of compounds 1 to 5 was determined using in vitro cultures of the causative organism of malaria, Plasmodium falciparum. 200 μl of an asynchronous Plasmodium falciparum culture with a 0.4% blood parasite content and a haematocrit of 2% were loaded into each of the wells of a 96 well microtitre plate. A serial dilution series of the compounds was then prepared in steps of three between concentrations of 100 and 0.14 μmol 1^−1. The plates are incubated at 37° C., 3% CO2 and 5% O2 over a period of 48 hours. 30 μl of medium supplemented with 27 ηCi ml^−1 of [^3H]-hypoxanthine were then added to each well. After 24 hours' incubation, the parasites were harvested by filtration through glass fibre filters and the incorporated radioactivity was measured. Inhibition of parasite growth was measured as the percentage inhibition of tritium incorporation relative to a comparison without the substance. The median inhibitory concentration (IC50) of the substance was determined by extrapolating the values.

E. coli K12 = assay: Antibacterial action: growth inhibition of E. coli K12 in LB medium (turbidity); format: cell-based; details: Escherichia coli, Example 10, overnight at 37° C., dilution series 500, 100, 50, 10 and 0 μmol l−1, growth assessed by turbidity, read-out: IC 50 values, E. coli
Experimental: Antibacterial action of the above-stated compounds 1 to 5
A dilution series comprising the concentrations 500, 100, 50, 10 and 0 μmol 1^−1 of the individual compounds 1 to 5 in LB medium is introduced into 5 culture microtubes in a volume of 0.5 ml. Each of the microtubes was inoculated with 10 μl of an overnight culture of E. coli K12 and shaken overnight at 37° C. Bacterial growth was assessed on the basis of the turbidity of the medium.

| Compound | IC50 (Plasmodium falciparum; Plasmodium falciparum) [nM] | IC50 (E. coli K12) [nM] | IC50 (Plasmodium falciparum) [nM] |
| --- | --- | --- | --- |
| CC(=O)N(O)C(CCc1ccccc1)CCP(=O)(O)O (stereo not shown) [Compound 1, 3-N-Acetyl-3-N-(hydroxylamino)-5-phenylpentylphosphonic acid] | – | – | 215 |
| CC(=O)C(C)(NO)C(CCc1ccccc1)CP(=O)(O)O (stereo not shown) [Compound 3, 3-acetyl-3-(N-hydroxylamino)-3-methyl-2-(2-phenylethyl)propylphosphonic acid] | 405 | 762000 | – |
| 3-acetyl-3-(N-hydroxylamino)-3-methyl-[2-(3-pyridyl)ethyl]propylphosphonic acid [Compound 5] | – | – | 183 |

Continued, values first:

| IC50 (Plasmodium falciparum; Plasmodium falciparum) [nM] | IC50 (E. coli K12) [nM] | IC50 (Plasmodium falciparum) [nM] | Compound |
| --- | --- | --- | --- |
| 375 | 736000 | – | CC(=O)C(C)(NO)C(CCc1ccccn1)CP(=O)(O)O (stereo not shown) [Compound 4, 3-acetyl-3-(N-hydroxylamino)-3-methyl-2-[2-(2-pyridyl)ethyl]propylphosphonic acid] |
| – | – | 157 | CC(=O)N(O)C(CCC1CCCCC1)CCP(=O)(O)O (stereo not shown) [Compound 2, 3-N-Acetyl-3-N-(hydroxylamino)-5-cyclohexyl-pentylphosphonic acid] |
